US20100034839A1, “METHODS FOR TREATING VIRAL DISORDERS” (priority 2008, published 2010)

Tested on: CLIP^+ B cells in human PBMC
Assay: Peptide replacement of CLIP on R848-activated human PBMC B cells
Type: cell-based
Details: PBMC of two donors cultured with R848 for 48 hours with peptide
Method: FIG. 13 depicts TLR activation results in ectopic CLIP expression on human B cells from peripheral blood mononuclear cells (PBMC) cultures. FIG. 13a: human PBMC from five donors were cultured for 24 hours with toll ligands (CpG-ODN, LPS, Pam3Cys, and Poly I:C) and were stained with a pan anti-HLA-DR-FITC antibody (values of isotype controls were subtracted from the specific stains, ΔMFI). FIG. 13b: cells were stained using anti-human CLIP-FITC versus CD19-PE (values of isotype controls were subtracted from the specific stains, ΔMFI). For FIGS. 13a & 13b: nil vs. CpG p=0.06821; nil vs. LPS p=0.0390; nil vs. PAM p=0.0124. FIG. 13c: cells were stained for CLIP-FITC versus CD19-PE as described for FIG. 13b. The data represent the percent of total PBMC that are CLIP+ B cells subsequent to treatment. For FIG. 13c: nil vs. CpG p=0.0058; nil vs. LPS p=0.0254. […]
PBMC were prepared from a total of seven adult normal donors, five for examining the effects of TLR binding on the percentage of ectopic CLIP^+ B cells and changes in mean fluorescence intensity of the CLIP staining resulting from TLR stimulation with CpG-ODN, LPS, Pam-3-Cys, and Poly I:C. […] Cells were analyzed using either a BD FacsCalibur, for the five samples, or a Coulter FC500 for the two tissue typed samples. […]

FRIMAVLAS
percentage of CLIP^+ B cells and level of CLIP per B cell: reduced the percentage of CLIP^+ B cells and the level of CLIP per B cell to pre-treatment levels
